# Laboratory results from patent US12110288B2, “MASP-2 inhibitors and methods of use” (Omeros Corporation, priority 2019, dated 2024).
# Structures can show the parent of a compound that is named as a salt.
# Target: T1, MASP-2 (CCP1-CCP2-SP) (Homo sapiens, UniProt O00187)
# T1 construct: 15 μL of Enzyme MASP-2 (CCP1-CCP2-SP) in Assay Buffer
# Assay: Enzymatic Assay for MASP-2
# Type: biochemical
# Conditions: fluorogenic substrate based on C2 cleavage site, room temperature, 20 mM HEPES pH 7.4
# How it was run: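 Fluorogenic substrate modelled on the C2 cleavage site, run at room temperature in 20 mM HEPES pH 7.4, 140 mM NaCl, 0.1% Tween 20; compounds were added from DMSO serial dilutions before enzyme and substrate. Reactions ran 20 min and were stopped with 0.1 M acetic acid before fluorescence was read. % activity was normalised to DMSO-only and no-enzyme controls; IC50 was taken as Ki, with tight- or slow-binding inhibitors handled separately.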
# T1 sequence (O00187 445-686 limits assumed): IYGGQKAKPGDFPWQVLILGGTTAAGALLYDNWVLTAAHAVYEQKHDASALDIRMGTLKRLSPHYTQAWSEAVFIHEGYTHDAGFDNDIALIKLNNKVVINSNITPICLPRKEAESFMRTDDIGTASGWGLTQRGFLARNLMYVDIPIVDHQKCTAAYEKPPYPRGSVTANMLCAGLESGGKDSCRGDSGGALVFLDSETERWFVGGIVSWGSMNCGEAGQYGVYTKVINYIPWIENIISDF
# T1 sequence (O00187 298-444 partner limits assumed): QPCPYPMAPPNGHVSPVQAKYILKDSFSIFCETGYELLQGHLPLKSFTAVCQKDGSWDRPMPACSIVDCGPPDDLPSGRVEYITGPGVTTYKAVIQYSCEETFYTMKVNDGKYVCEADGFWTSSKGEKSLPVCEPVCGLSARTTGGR
row,SMILES,Ki [nM]
1,"CC(C)(O)c1cccc(-c2cnc(NCCc3ccccc3)c(=O)n2CC(=O)NCc2cc3cnccc3[nH]2)c1 [Compound 92, N-((1H-Pyrrolo[3,2-c]pyridin-2-yl)methyl)-2-(6-(3-(2-hydroxypropan-2-yl)phenyl)-2-oxo-3-(phenethylamino)pyrazin-1(2H)-yl)acetamide]",< 500
2,"O=C(O)Cc1cccc(-c2cnc(NCCc3ccccc3)c(=O)n2CC(=O)NCc2cc3cnccc3[nH]2)c1 [Compound 94, 2-(3-(1-(2-(((1H-Pyrrolo[3,2-c]Pyridin-2-yl)Methyl) Amino)-2-Oxoethyl)-6-Oxo-5-(Phenethylamino)-1,6-Dihydropyrazin-2-yl)Phenyl)Acetic Acid Trifluoroacetate]",< 500
3,"O=C(Cn1c(-c2cccc(C3(O)CC3)c2)cnc(NCCc2ccccc2)c1=O)NCc1cc2cnccc2[nH]1 [Compound 98, N-((1H-Pyrrolo[3,2-c]pyridin-2-yl)methyl)-2-(6-(3-(1-hydroxycyclopropyl)phenyl)-2-oxo-3-(phenethylamino)pyrazin-1(2H)-yl)acetamide]",< 500
4,"CC(O)c1cccc(-c2cnc(NCCc3ccccc3)c(=O)n2CC(=O)NCc2cc3cnccc3[nH]2)c1 (centres unmarked) [Compound 100, N-((1H-Pyrrolo[3,2-c]Pyridin-2-yl)Methyl)-2-(6-(3-(1-Hydroxyethyl)Phenyl)-2-Oxo-3-(Phenethylamino)Pyrazin-1(2H)-yl)Acetamide]",< 500
5,"Cn1cc(-c2cnc(NCCc3ccccc3)c(=O)n2CC(=O)NCc2cc3cnccc3[nH]2)cn1 [Compound 101, N-((1H-Pyrrolo[3,2-c]pyridin-2-yl)methyl)-2-(6-(1-methyl-1H-pyrazol-4-yl)-2-oxo-3-(phenethylamino)pyrazin-1(2H)-yl)acetamide]",< 500
6,"O=C(Cn1c(-c2cn[nH]c2)cnc(NCCc2ccccc2)c1=O)NCc1cc2cnccc2[nH]1 [Compound 102, N-((1H-Pyrrolo[3,2-c]pyridin-2-yl)methyl)-2-(2-oxo-3-(phenethylamino)-6-(1H-pyrazol-4-yl)pyrazin-1(2H)-yl)acetamide]",< 500
7,"CC(C)n1cc(-c2cnc(NCCc3ccccc3)c(=O)n2CC(=O)NCc2cc3cnccc3[nH]2)cn1 [Compound 103, N-((1H-Pyrrolo[3,2-c]pyridin-2-yl)methyl)-2-(6-(1-isopropyl-1H-pyrazol-4-yl)-2-oxo-3-(phenethylamino)pyrazin-1(2H)-yl)acetamide]",< 500
8,"Cn1nccc1-c1cnc(NCCc2ccccc2)c(=O)n1CC(=O)NCc1cc2cnccc2[nH]1 [Compound 105, N-((1H-Pyrrolo[3,2-c]pyridin-2-yl)methyl)-2-(6-(1-methyl-1H-pyrazol-5-yl)-2-oxo-3-(phenethylamino)pyrazin-1(2H)-yl)acetamide]",< 500
9,"O=C(Cn1c(-c2ccc(F)cc2)cnc(NCCc2ccccc2)c1=O)NCc1cc2cnccc2[nH]1 [Compound 106, N-((1H-Pyrrolo[3,2-c]pyridin-2-yl)methyl)-2-(6-(4-fluorophenyl)-2-oxo-3-(phenethylamino)pyrazin-1(2H)-yl)acetamide]",< 500
10,"Cc1ccc(C)c(-c2cnc(NCCc3ccccc3)c(=O)n2CC(=O)NCc2cc3cnccc3[nH]2)c1 [Compound 108, N-((1H-Pyrrolo[3,2-c]pyridin-2-yl)methyl)-2-(6-(2,5-dimethylphenyl)-2-oxo-3-(phenethylamino)pyrazin-1(2H)-yl)acetamide]",< 500
11,"O=C(Cn1c(Br)cnc(NCCc2ccccc2)c1=O)NCc1cc2cnccc2[nH]1 [Compound 109, N-((1H-Pyrrolo[3,2-c]Pyridin-2-yl)Methyl)-2-(6-Bromo-2-Oxo-3-(Phenethylamino)Pyrazin-1(2H)-yl)Acetamide]",< 500
12,"O=C(Cn1c(-c2cnn(C3CCC3)c2)cnc(NCCc2ccccc2)c1=O)NCc1cc2cnccc2[nH]1 [Compound 110, N-((1H-Pyrrolo[3,2-c]pyridin-2-yl)methyl)-2-(6-(1-cyclobutyl-1H-pyrazol-4-yl)-2-oxo-3-(phenethylamino)pyrazin-1(2H)-yl)acetamide]",< 500
13,"CC(C)(C)OC(=O)N1CC(n2cc(-c3cnc(NCCc4ccccc4)c(=O)n3CC(=O)NCc3cc4cnccc4[nH]3)cn2)C1 [Compound 111, tert-Butyl 3-(4-(1-(2(((1H-pyrrolo[3,2-c]pyridin-2-yl)methyl)amino)-2-oxoethyl)-6-oxo-5-(phenethylamino)-1,6-dihydropyrazin-2-yl)-1H-pyrazol-1-yl)azetidine-l-carboxylate]",< 500
14,"O=C(Cn1c(-c2cnn(C3CNC3)c2)cnc(NCCc2ccccc2)c1=O)NCc1cc2cnccc2[nH]1 [Compound 112, N-((1H-Pyrrolo[3,2-c]Pyridin-2-yl)Methyl)-2-(6-(1-(Azetidin-3-yl)-1H-Pyrazol-4-yl)-2-Oxo-3-(Phenethylamino)Pyrazin-1(2H)-yl)Acetamide Hydrochloride]",< 500
15,"Cc1nn(C2CC2)cc1-c1cnc(NCCc2ccccc2)c(=O)n1CC(=O)NCc1cc2cnccc2[nH]1 [Compound 114, N-((1H-Pyrrolo[3,2-c]pyridin-2-yl)methyl)-2-(6-(1-cyclopropyl-3-methyl-1H-pyrazol-4-yl)-2-oxo-3-(phenethylamino)pyrazin-1(2H)-yl)acetamide]",< 500
16,"O=C(O)CNc1ncc(-c2ccccc2)n(CC(=O)NCc2cc3cnccc3[nH]2)c1=O [Compound 118, (4-(2-(((1H-Pyrrolo[3,2-c]Pyridin-2-yl)Methyl)Amino)-2-Oxoethyl)-3-Oxo-5-Phenyl-3,4-Dihydropyrazin-2-yl)Glycine Trifluoroacetate]",500 to 2500
17,"O=C(Cn1c(-c2ccccc2)cnc(N[C@@H](Cc2ccc(O)cc2)C(=O)O)c1=O)NCc1cc2cnccc2[nH]1 [Compound 119, trifluoroacetate]",< 500

# Other lines, results leading:
row,Ki [nM],SMILES
1,< 500,"COC(=O)Cc1cccc(-c2cnc(NCCc3ccccc3)c(=O)n2CC(=O)NCc2cc3cnccc3[nH]2)c1 [Compound 93, Methyl 2-(3-(1-(2(((1H-pyrrolo[3,2-c]pyridin-2-yl)methyl)amino)-2-oxoethyl)-6-oxo-5-(phenethylamino)-1,6-dihydropyrazin-2-yl)phenyl)acetate trifluoroacetate]"
2,< 500,"CS(=O)(=O)NCc1cccc(-c2cnc(NCCc3ccccc3)c(=O)n2CC(=O)NCc2cc3cnccc3[nH]2)c1 [Compound 95, N-((1H-Pyrrolo[3,2-c]Pyridin-2-yl)Methyl)-2-(6-(3-(Methylsulfonamidomethyl)Phenyl)-2-Oxo-3-(Phenethylamino)Pyrazin-1(2H)-yl)Acetamide]"
3,< 500,"NCc1cccc(-c2cnc(NCCc3ccccc3)c(=O)n2CC(=O)NCc2cc3cnccc3[nH]2)c1 [Compound 96, N-((1H-Pyrrolo[3,2-c]Pyridin-2-yl)Methyl)-2-(6-(3-(Aminomethyl)Phenyl)-2-Oxo-3-(Phenethylamino)Pyrazin-1(2H)-yl)Acetamide]"
4,< 500,"O=C(Cn1c(-c2cccc(C(O)C(F)(F)F)c2)cnc(NCCc2ccccc2)c1=O)NCc1cc2cnccc2[nH]1 (centres unmarked) [Compound 97, N-((1H-Pyrrolo[3,2-c]pyridin-2-yl)methyl)-2-(2-oxo-3-(phenethylamino)-6-(3-(2,2,2-trifluoro-1-hydroxyethyl)phenyl)pyrazin-1(2H)-yl)acetamide]"
5,< 500,"O=C(Cn1c(-c2cccc(C3(O)COC3)c2)cnc(NCCc2ccccc2)c1=O)NCc1cc2cnccc2[nH]1 [Compound 99, N-((1H-Pyrrolo[3,2-c]pyridin-2-yl)methyl)-2-(6-(3-(3-hydroxyoxetan-3-yl)phenyl)-2-oxo-3-(phenethylamino)pyrazin-1(2H)-yl)acetamide]"
6,< 500,"Cc1nn(C)cc1-c1cnc(NCCc2ccccc2)c(=O)n1CC(=O)NCc1cc2cnccc2[nH]1 [Compound 104, N-((1H-Pyrrolo[3,2-c]pyridin-2-yl)methyl)-2-(6-(1,3-dimethyl-1H-pyrazol-4-yl)-2-oxo-3-(phenethylamino)pyrazin-1(2H)-yl)acetamide]"
7,< 500,"O=C(Cn1c(-c2cc(F)ccc2F)cnc(NCCc2ccccc2)c1=O)NCc1cc2cnccc2[nH]1 [Compound 107, N-((1H-Pyrrolo[3,2-c]pyridin-2-yl)methyl)-2-(6-(2,5-difluorophenyl)-2-oxo-3-(phenethylamino)pyrazin-1(2H)-yl)acetamide]"
8,< 500,"O=C(Cn1c(-c2cnn(C(F)F)c2)cnc(NCCc2ccccc2)c1=O)NCc1cc2cnccc2[nH]1 [Compound 113, N-((1H-Pyrrolo[3,2-c]pyridin-2-yl)methyl)-2-(6-(1-(difluoromethyl)-1H-pyrazol-4-yl)-2-oxo-3-(phenethylamino)pyrazin-1(2H)-yl)acetamide]"
9,< 500,"O=C(Cn1c(-c2cnn3c2CCC3)cnc(NCCc2ccccc2)c1=O)NCc1cc2cnccc2[nH]1 [Compound 115, N-((1H-Pyrrolo[3,2-c]pyridin-2-yl)methyl)-2-(6-(5,6-dihydro-4H-pyrrolo[1,2-b]pyrazol-3-yl)-2-oxo-3-(phenethylamino)pyrazin-1(2H)-yl)acetamide]"
10,< 500,"O=C(Cn1c(-c2cnn3c2CCCC3)cnc(NCCc2ccccc2)c1=O)NCc1cc2cnccc2[nH]1 [Compound 116, N-((1H-Pyrrolo[3,2-c]pyridin-2-yl)methyl)-2-(2-oxo-3-(phenethylamino)-6-(4,5,6,7-tetrahydropyrazolo[1,5-α]pyridin-3-yl)pyrazin-1(2H)-yl)acetamide]"
11,< 500,"CCOC(=O)CNc1ncc(-c2ccccc2)n(CC(=O)NCc2cc3cnccc3[nH]2)c1=O [Compound 117, Ethyl (4-(2-(((1H-pyrrolo[3,2-c]pyridin-2-yl)methyl)amino)-2-oxoethyl)-3-oxo-5-phenyl-3,4-dihydropyrazin-2-yl)glycinate]"
12,< 500,"COCCNc1ncc(-c2ccccc2)n(CC(=O)NCc2cc3cnccc3[nH]2)c1=O [Compound 120, N-((1H-Pyrrolo[3,2-c]pyridin-2-yl)methyl)-2-(3-((2-methoxyethyl)amino)-2-oxo-6-phenylpyrazin-1(2H)-yl)acetamide trifluoroacetate]"
